Laboratory results reported in patent US7186722B2, “2-heteroaryl-3,4-dihydro-2h-pyrrole derivatives and the use thereof as pesticides” (Bayer Cropscience AG, priority 2001, dated 2007).

Key:
Type in all cases: in vivo
[1] = test system: peach aphid (Myzus persicae); assay: Myzus Test; conditions: 1000 ppm, cabbage leaves dipped
Procedure: • Solvent: 7 parts by weight of dimethylformamide • Emulsifier: 1 part by weight of alkylaryl polyglycol ether
(§1) To produce a suitable preparation of active compound, 1 part by weight of active compound is mixed with the stated amounts of solvent and emulsifier, and the concentrate is diluted with emulsifier-containing water to the desired concentration.
Cabbage leaves (Brassica oleracea) which are heavily infested by the peach aphid (Myzus persicae) are treated by being dipped into the preparation of active compound of the desired concentration.
After the desired period of time, the kill in % is determined. 100% means that all aphids have been killed; 0% means that none of the aphids have been killed.

[2] = test system: greenhouse red spider mite (Tetranychus urticae); assay: Tetranychus Test (OP-resistent/dip treatment); conditions: 500 ppm, bean plants dipped, OP-resistent
Procedure: Tetranychus Test (OP-Resistent/Dip Treatment)
(§2) • Solvent: 30 parts by weight of dimethylformamide • Emulsifier: 1 part by weight of alkylaryl polyglycol ether
as §1
Bean plants (Phaseolus vulgaris) which are heavily infested by all stages of the greenhouse red spider mite (Tetranychus urticae) are dipped into a preparation of active compound of the desired concentration.
After the desired period of time, the effect in % is determined. 100% means that all spider mites have been killed; 0% means that none of the spider mites have been killed.

[3] = test system: caterpillars of the diamond back moth (Plutella xylostella); assay: Plutella Test; conditions: 8 ppm, cabbage leaves dipped
Procedure: as §2, §1
Cabbage leaves (Brassica oleracea) are treated by being dipped into the preparation of active compound of the desired concentration and are populated with caterpillars of the diamond back moth (Plutella xylostella) while the leaves are still moist.
After the desired period of time, the kill in % is determined. 100% means that all caterpillars have been killed; 0% means that none of the caterpillars have been killed.

With `Fc1cccc(F)c1C1=NC(c2cc3ccccc3s2)CC1` (stereo not drawn) [drawing 86] the “Kill rate in % after 6 d” value [1] was 95%.
In the case of `Fc1cccc(F)c1C1=NC(c2cc3sc(-c4ccc(OC(F)(F)F)cc4)cc3s2)CC1` (stereo not drawn) [drawing 97], the “Kill rate in % after 7 d” value [2] is reported as 80%.
`Fc1cccc(F)c1C1=NC(c2ccc(-c3ccc(OC(F)(F)F)cc3)s2)CC1` (stereo not drawn) [drawing 90] was tested, and the “Kill rate in % after 6 d” value [3] was 90%.
